In patent US20080280326A1, “Novel Gonadotropin-Releasing Hormone, Precursor Peptides Thereof and Genes Encoding the Same” (SUNTORY LIMITED, priority 2000, published 2008):
Square brackets hold non-standard residues; d marks the D form. pGlu = O=C1CC[C@@H](C(=O)O)N1

What was measured:
[1] = tested on: heart of O. vulgaris; assay: Measurement of the heart beat activity of O. vulgaris (isolated cannulated heart); design: species or system Octopus vulgaris; details: for variation of the heart beat of O. vulgaris (heart rate and amplitude): 10^-5 M added to the chamber (FIG. 3)
Description: The heart beat activity of O. vulgaris was measured according to the method proposed by Morishita, et al. (Fumihiro Morishita, Biochem. Biophys. Res. Commun., 240, 354-358 (1997)). Specifically, the heart was taken from O. vulgaris and the atria were removed from the heart. A cannula was inserted from each atrium into the ventricle and was at the same time connected to a chamber (80 ml in volume) by tying with a cotton thread. The aorta was pinched to prevent leakage of liquid from the ventricle and was connected to a tension transducer. This completed preparation of the heart to serve as a specimen for the assay. Each cannula was adjusted to permit a 1 to 2 ml/min flow of artificial sea water (containing 0.1% glucose). Each of the analytes to be assayed was dissolved in 1 ml of the same artificial sea-water, and the resulting solution was injected into the heart through the cannulae. The variation of the heart beat was recorded.
As test compounds, Compound (1) isolated from the brains of O. vulgaris, Compound (2), and cGnRH-II, a vertebrate GnRH isolated from chickens and used to derive Compound (2) therefrom, were used.

[2] = tested on: Cells taken from the pituitary glands of quails; assay: Release of luteinizing hormone (LH) from cultured quail pituitary gland cells, radioimmunoassay; format: cell-based; details: final concentrations 0, 10^-9 to 10^-5 M, 4 hrs incubation, one-way ANOVA (FIG. 4)
Description: Cells taken from the pituitary glands of quails were inoculated onto a 24-well plate at 7.5×10^5 cells/well (substantially equivalent to two animals). The cells were then incubated for 3 days in a culture medium containing fetal calf serum. The cells were incubated for another 24 hrs in 1 ml serum-free medium. After the incubation period, the peptide solution was added to the culture medium to final concentrations of 0, 10^−9, 10^−8, 10^−7, 10^−6 and 10^−5 M, respectively, and the cultures were further incubated for 4 hrs. The supernatant was then collected from each culture. For each concentration, 5 samples were subjected to radioimmunoassay and measurements were taken. The data were statistically analyzed by one-way analysis of variance (ANOVA).

Substance	variation of the heart beat of O. vulgaris ([1]; amount of Compound (1) corresponding to one specimen of O. vulgaris added to the chamber (FIG. 2))	cardioactivity toward the heart beat of O. vulgaris, synthetic versus naturally-occurring peptide ([1]; purified synthetic peptide of Example 3)	release of luteinizing hormone (LH) [2]	variation of the heart beat of O. vulgaris (heart rate and amplitude) [1]
<Glu-Asn-Tyr-His-Phe-Ser-Asn-Gly-Trp-His-Pro-Gly-NH2 ([pGlu]NYHFSNGWHPG-NH2; listed as Octopus vulgaris) [Compound (1)]	enhanced the heart beat of O. vulgaris	same cardioactivity toward the heart beat of O. vulgaris as did the naturally-occurring peptide	significantly increased the release of luteinizing hormone (LH)	
cGnRH-II: chicken-II-type GnRH, a vertebrate decapeptide GnRH isolated from chickens, used to derive Compound (2) ([pGlu]HWSHGWYPG-NH2; ends and bridges not checked; UniProt P68072 1-10, looked up) [reference compound]				did not have any effect on the heart rate or the amplitude of the heart beat of O. vulgaris
<Glu-Asn-Tyr-His-Trp-Ser-His-Gly-Trp-Tyr-Pro-Gly-NH2 ([pGlu]NYHWSHGWYPG-NH2; SMILES NC(=O)CNC(=O)[C@@H]1CCCN1C(=O)[C@H](Cc1ccc(O)cc1)NC(=O)[C@H](Cc1c[nH]c2ccccc12)NC(=O)CNC(=O)[C@H](Cc1c[nH]cn1)NC(=O)[C@H](CO)NC(=O)[C@H](Cc1c[nH]c2ccccc12)NC(=O)[C@H](Cc1c[nH]cn1)NC(=O)[C@H](Cc1ccc(O)cc1)NC(=O)[C@H](CC(N)=O)NC(=O)[C@@H]1CCC(=O)N1) [Compound (2), cGnRH-II with Asn-Tyr inserted between the first <Glu and the second His residues]				enhanced the heart beat of O. vulgaris by increasing both the heart rate and the amplitude of the heart beat
<Glu-His-Phe-Ser-Asn-Gly-Trp-His-Pro-Gly-NH2 ([pGlu]HFSNGWHPG-NH2; SMILES NC(=O)CNC(=O)[C@@H]1CCCN1C(=O)[C@H](Cc1c[nH]cn1)NC(=O)[C@H](Cc1c[nH]c2ccccc12)NC(=O)CNC(=O)[C@H](CC(N)=O)NC(=O)[C@H](CO)NC(=O)[C@H](Cc1ccccc1)NC(=O)[C@H](Cc1c[nH]cn1)NC(=O)[C@@H]1CCC(=O)N1; listed as Octopus vulgaris) [Compound (3), decapeptide obtained by deletion of amino acids 2 and 3 from the N-terminal region of Compound (1)]			increase the release of luteinizing hormone (LH)	
